Results reported in article PMC8370991, “Structural basis for the inhibition of HTLV-1 integration inferred from cryo-EM deltaretroviral intasome structures” (Nature Communications, 2021).
Where two headings read alike, the source gives them in different places.

Assays:
recombinant HTLV-1 IN = target: T1, recombinant HTLV-1 IN (Human T-cell leukemia virus 1, UniProt P03362); assay: In vitro integration strand transfer assay with HTLV-1 IN; format: biochemical; conditions: for HTLV-1 IN strand transfer activity (No drug = 100): INSTI at 634 nM
T1 construct: made in house
Summary of the method: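 Recombinant HTLV-1 IN (4 μg) with annealed 3′-processed LTR donor DNA (0.53 μM) preincubated 15 min RT with compound (screen at 634 nM) in PIPES pH 6.0, NaCl, MgCl2, ZnCl2, DTT; supercoiled plasmid target added, 1 h 37 °C. Concerted integration product quantified by agarose-gel densitometry; IC50 from dose–response fits, triplicate.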

HTLV-1 = assay: Alu-qPCR of integrated provirus in HTLV-1 infected Jurkat cells; format: cell-based; conditions: normalized to GAPDH
Method: The HTLV-1 cell-to-cell infection was performed as previously described; Jurkat T cells were counted and diluted in complete RPMI to a final concentration of 0.25 × 10^6 cells/ml and pre-treated with INSTI drugs (final concentration ranging from 0.2 pM to 2 μM) or DMSO as a control for 24 h. MT-2 cells were resuspended in RPMI at a concentration of 2 × 10^6 cells/ml and subjected to a nonlethal γ-radiation dose of 400 Gy. Cells were resuspended at a concentration of 2 × 10^6 cells/ml in serum-free RPMI supplemented with the corresponding INSTI drug. Co-culture of 0.5 × 10^6 for each cell line was carried out for 16 h, after which cells were washed in PBS and resuspended in 1 ml of depletion buffer (PBS, 0.1% FBS and 2 mM EGTA). MT-2 cells were depleted from the culture by means of anti-CD25 magnetic beads (DynabeadsTM CD25, Thermo Fisher). Depletion efficiency was confirmed via flow cytometry as described previously. Jurkat cells were cultured for 2 weeks in complete RPMI supplemented with the drugs and genomic DNA was extracted (DNeasy kit, Qiagen) and stored at −20 °C for subsequent analysis. All the experiments were done in triplicate.
The PVL was measured as previously described[9],[53],[54]. Jurkat genomic DNA was quantified and diluted to a concentration of 5 ng/μL. Real-time qPCR analysis were conducted on 20 ng of gDNA to measure the level of HTLV-1 tax and gapdh genes (Supplementary Table 5). For the standard curve, the gDNA from an HTLV-1 naturally infected T-cell clone (clone 11.50, courtesy of professor Charles Bangham), which has one copy of tax and two of gapdh, was used. The integrated provirus copy number was calculated as follows: (tax copy numbers)/(2×gapdh copy number)[53], and normalised to the DMSO-treated control which was set to 100%. The PVL data were fitted to a dose–response curve in Prism 7 and the EC50 was calculated. Alu-PCR was performed as previously described in ref. [55]. In brief, the first PCR reaction was done with Phusion polymerase starting from 80 ng of gDNA using the ALU-specific primers (Alu-F/Gag-R). The nested PCR was run diluting the amplificated product 1:50. The reaction was done as a qPCR using Gag-specific primers (Gag-R/Gag-F) and the Luna SYBR dye reaction mix (New England Biolabs). The integrated provirus copy numbers were normalised to GAPDH and Jurkat cells treated with DMSO and infected with HTLV-1 were set to 100%. Experiments were done in triplicate. […]
Supplementary Figure 6 | Integrated provirus was quantified by Alu-qPCR.
Values were normalized to GAPDH. Uninfected represents uninfected Jurkat cells, acting as negative control. Condition without any drug present (DMSO) was set as 100%. Mean values and standard deviations are shown for n = three biologically independent experiments. P-values were calculated with respect to the DMSO control using the unpaired t-test with Welch’s correction in Prism 9. P-values are two-sided.

HIV-1 = conditions: cited from earlier work
[1] = Replicate 1, read-out: HTLV-1 IN strand transfer IC50
[2] = Replicate 2, read-out: HTLV-1 IN strand transfer IC50
[3] = Replicate 3, read-out: HTLV-1 IN strand transfer IC50
[4] = integrase strand-transfer drug titration, n = 3, read-out: HTLV-1 IC50 ± stdev
[5] = previously reported, read-out: EC50, infection by wild-type HIV-1

T1 sequence (P03362 1168-1462): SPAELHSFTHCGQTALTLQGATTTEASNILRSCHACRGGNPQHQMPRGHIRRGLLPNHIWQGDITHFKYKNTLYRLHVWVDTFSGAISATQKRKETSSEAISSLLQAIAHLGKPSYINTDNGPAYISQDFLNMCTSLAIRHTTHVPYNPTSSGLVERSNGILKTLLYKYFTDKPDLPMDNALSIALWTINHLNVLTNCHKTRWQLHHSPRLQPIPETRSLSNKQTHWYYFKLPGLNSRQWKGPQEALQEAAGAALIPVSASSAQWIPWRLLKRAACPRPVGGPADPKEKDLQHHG

Compound	HTLV-1 IN strand transfer activity (No drug = 100) (recombinant HTLV-1 IN; Replicate 1)	HTLV-1 IN strand transfer activity (No drug = 100) (recombinant HTLV-1 IN; Replicate 2)	HTLV-1 IN strand transfer activity (No drug = 100) (recombinant HTLV-1 IN; Replicate 3)	IC50 (recombinant HTLV-1 IN; [1])	IC50 (recombinant HTLV-1 IN; [2])	IC50 (recombinant HTLV-1 IN; [3])	inhibition of HTLV-1 IN in the screen compared with RAL (recombinant HTLV-1 IN; each compound at 634 nM)	IC50 (recombinant HTLV-1 IN; [4])	Integrated provirus by Alu-qPCR (DMSO = 100%) (HTLV-1; Replicate 1)	Integrated provirus by Alu-qPCR (DMSO = 100%) (HTLV-1; Replicate 2)	Integrated provirus by Alu-qPCR (DMSO = 100%) (HTLV-1; Replicate 3)	EC50 (HIV-1; HIV-1 infection model, supplementary ref 7, read-out: HIV-1 EC50 ± stdev)	EC50 (HIV-1; HIV-1 infection model, supplementary ref 1, read-out: HIV-1 EC50 ± stdev)	EC50 (HIV-1; previously reported, read-out: EC50, inhibitory potency for HIV-1)	EC50 (HIV-1; [5])
CC(C)n1c(C(=O)N(C)C)c2c(c(O)c1=O)C(=O)N(Cc1ccc(F)c(Cl)c1)CC2 [XZ236, 6-(3-chloro-4-fluorobenzyl)-4-hydroxy-2-isopropyl-N,N-dimethyl-3,5-dioxo-2,3,5,6,7,8-hexahydro-2,6-naphthyridine-1-carboxamide, reference compound]	9.7581%	22.4849%	26.0036%	130 nM	504 nM	301 nM	outperformed RAL	322 ± 121 nM	4.2364%	4.296%	2.243%	17 ± 4 nM			
Nc1c(C(=O)NCc2ccc(F)cc2F)c(=O)n(O)c2ncc(CCCO)cc12 [XZ423, 4-amino-N-(2,4-difluorobenzyl)-1-hydroxy-6-(3-hydroxypropyl)-2-oxo-1,2-dihydro-1,8-naphthyridine-3-carboxamide]	5.722%	15.1459%	14.6599%	144 nM	185 nM	155 nM		155 ± 33.5 nM	2.519%	0.166%	0.06882%		3.1 ± 2 nM		
Nc1c(C(=O)NCc2ccc(F)cc2F)c(=O)n(O)c2ncc(CCS(=O)(=O)c3ccccc3)cc12 [XZ446, 4-amino-N-(2,4-difluorobenzyl)-1-hydroxy-2-oxo-6-(2-(phenylsulfonyl)ethyl)-1,2-dihydro-1,8-naphthyridine-3-carboxamide]	11.4924%	20.4545%	15.1675%	143 nM	85 nM	126 nM		115 ± 9.5 nM	13.9354%	1.128%	3.891%			2 ± 0.1 nM	
Nc1c(C(=O)NCc2ccc(F)cc2F)c(=O)n(O)c2ncc(CCC(=O)NCCO)cc12 [XZ448, 4-amino-N-(2,4-difluorobenzyl)-1-hydroxy-6-(3-((2-hydroxyethyl)amino)-3-oxopropyl)-2-oxo-1,2-dihydro-1,8-naphthyridine-3-carboxamide]	5.498%	23.674%	16.1231%	99 nM	227 nM	108 nM		132 ± 29.7 nM	25.215%	64.5778%	27.0471%				263 ± 52 nM
CN(C)C(=O)CCc1cnc2c(c1)c(N)c(C(=O)NCc1ccc(F)cc1F)c(=O)n2O [XZ450, 4-amino-N-(2,4-difluorobenzyl)-6-(3-(dimethylamino)-3-oxopropyl)-1-hydroxy-2-oxo-1,2-dihydro-1,8-naphthyridine-3-carboxamide]	10.2814%	19.561%	9.5729%	115 nM	180 nM	76 nM		120 ± 36.1 nM	0.2536%	0.5264%	0.2229%				5 ± 1.3 nM
